The values below are quoted from earlier work in patent US20110155130A1, “Dronabinol Treatment for Migraines” (Unimed Pharmaceuticals, Inc., priority 2005, published 2011).

For this series the following is noted: 5 mg to 20 mg oral doses of THC; randomized controlled clinical trials.

For `CCCCCc1cc(O)c2c(c1)OC(C)(C)[C@@H]1CCC(C)=C[C@@H]21` [THC, (6a R-trans)-6a,7,8,10a-tetrahydro-6,6,9-trimethyl-3-pentyl-6H-dibenzo[b,d]pyran-1-ol], the “effectiveness compared with codeine” value is “as effective as 50 mg to 120 mg of codeine”.
